Data on two substances can be found in US10813906B2, “Use of ferrous amino acid chelate to treat infection by enteropathogen and to enhance growth performance” (Profeat Biotechnology Co., Ltd., priority 2018, dated 2020).

One experiment has as its system Escherichia coli. The experiment can be described thus: Enteropathogen infection in chickens, real time PCR of feces: Escherichia coli. It counts as in vivo, Taiwan black-feather country chickens. The settings on record: Week 10, feces from cloaca. On the technique in general: Quantitative PCR measures a nucleic acid by following its amplification.
Experiment [1] is described as follows: Growth performance of chickens fed mixed feed for 12 weeks. It counts as in vivo, Taiwan black-feather country chickens. The settings on record: for Body weight: mean ± S.D., 20 g of Fe per 1000 kg of mixed feed; for ADG (average daily gain) / FE (feed efficiency, ratio of total feed intake to total body weight): Week 12, 20 g of Fe per 1000 kg of mixed feed. An excerpt:
The experimental chickens were randomly divided into a control group and an experimental group (n=40/group), and each group was placed in a pen with a size of 6.5 m^2. Water was provided ad libitum for all of the experimental chickens. […] The mixed feed supplied to the control group was made from a basal diet and a ferrous sulfate (20 g of Fe per 1000 kg of the mixed feed). The mixed feed supplied to the experimental group was made from the basal diet and the ferrous amino acid chelate prepared as described in the section, entitled “1. […] The body weight of each chicken was determined before and after supply of the mixed feed. Subsequently, average daily gain (ADG) of the chickens in each group was calculated based on the body weight and the feed intake. Feed efficiency (FE) defined as a ratio of total feed intake to total body weight was also calculated. The experimental data were analyzed via Student's t-test so as to assess the difference between the test groups. Statistical significance is indicated by p<0.05.

The test system of a further experiment is Clostridium perfringens. The class given is in vivo, Taiwan black-feather country chickens. The settings on record: Week 6; feces from cloaca, real time PCR.
Experiment [2] can be described thus: Growth performance of postweaning piglets fed mixed feed for 8 weeks. The class given is in vivo. The settings on record: for ADFI (average daily feed intake) / ADG (average daily gain) / FE (feed efficiency, ratio of ADFI to ADG) / Total feed intake: age 4 to 12 weeks; for Body weight: mean ± S.D.; for Total feed intake: whole group. The text has this: About 1000 male piglets and 1000 female piglets (purchased from HAIFUNG ranch, Yunlin County, Taiwan and bred in the nursery) were used in the following experiment. The experimental piglets were randomly divided into an experimental group and a control group, and sufficient water and feed were supplied to the experimental piglets. […] The mixed feed supplied to the experimental group was made from the basal diet and the ferrous amino acid chelate prepared as described in the section, entitled “1. […] Subsequently, average daily gain (ADG) and average daily feed intake (ADFI) of the postweaning piglets in each group were calculated based on the body weight and the total feed intake. Feed efficiency (FE) defined as a ratio of ADFI to ADG was also calculated. The experimental data were expressed as mean±S.D., and were analyzed via Student's t-test so as to assess the difference between the test groups. Statistical significance is indicated by p<0.05.

The next experiment deals with Coccidia. The experiment can be described thus: Coccidia infestation in chickens, microscopic observation of feces. It counts as in vivo, Taiwan black-feather country chickens. The settings on record: Week 6. An excerpt: The experimental chickens were randomly divided into a control group and an experimental group (n=40/group), and each group was placed in a pen with a size of 6.5 m^2. Water was provided ad libitum for all of the experimental chickens. […] The mixed feed supplied to the control group was made from a basal diet and a ferrous sulfate (20 g of Fe per 1000 kg of the mixed feed). The mixed feed supplied to the experimental group was made from the basal diet and the ferrous amino acid chelate prepared as described in the section, entitled “1. […] Moreover, during supply of the mixed feed, fifteen chickens were randomly chosen at a designated time point to collect the feces from the cloaca thereof using cotton swabs. Coccidia infestation is determined by microscopic observation of the obtained feces sample.

The next experiment has as its system Salmonella spp. In words: Enteropathogen infection in chickens, real time PCR of feces: Salmonella spp. The class given is in vivo, Taiwan black-feather country chickens. The settings on record: Week 10, feces from cloaca. The text has this: Taiwan black-feather country chickens (1 day of age) were purchased from Animal Research Farm in National Chia-Yi University (Taiwan), and were raised in a farm under the guidelines of Animal Care Committee of the Council of Agriculture, Taiwan. The experimental chickens were randomly divided into a control group and an experimental group (n=40/group), and each group was placed in a pen with a size of 6.5 m^2. Water was provided ad libitum for all of the experimental chickens.
Each of the experimental chickens was fed with a mixed feed for 12 weeks at a dose of 0.1 kg per day. The mixed feed supplied to the control group was made from a basal diet and a ferrous sulfate (20 g of Fe per 1000 kg of the mixed feed). The mixed feed supplied to the experimental group was made from the basal diet and the ferrous amino acid chelate prepared as described in the section, entitled “1. Preparation of ferrous amino acid chelate” of the “General Experimental Materials” (20 g of Fe per 1000 kg of the mixed feed).
Moreover, during supply of the mixed feed, fifteen chickens were randomly chosen at a designated time point to collect the feces from the cloaca thereof using cotton swabs.
In addition, the obtained feces were subjected to nucleic acid extraction with Taco™ DNA/RNA Extraction Kit (GeneReach Biotechnology Corp) according to the manufacturer's instructions. […]

The mark [3] stands for this setting: Week 0 (before supply of the mixed feed).
Setting [4] is: age 4 weeks (at weaning, start of the mixed feed).
[5] abbreviates: age 12 weeks, after 8 weeks of mixed feed (basal diet:iron source 1000:1).

In the case of “ferrous glycinate chelate [ferrous amino acid chelate]”, the “Enteropathogen infection, Escherichia coli (percentage of infection among 15 selected chickens)” value with Escherichia coli amounted to 27%. Also, the Body weight in experiment [1] (setting [3]) stood at 32.48 ± 3.49 g. For the same substance, in experiment [1], the “ADG (average daily gain)” value is listed as 25.44 g/day per chicken and the “FE (feed efficiency, ratio of total feed intake to total body weight)” value is recorded as 3.59. Further, the Body weight in experiment [1] (Week 12 of mixed feed) was determined as 2143.71 ± 250.23 g. Further, the “Enteropathogen infection, Clostridium perfringens (percentage of infection among 15 selected chickens)” value with Clostridium perfringens amounted to 0%. Further, in experiment [2], the “ADFI (average daily feed intake)” value amounted to 0.78 kg/day per piglet; the “ADG (average daily gain)” value came to 0.40 kg/day per piglet; the “FE (feed efficiency, ratio of ADFI to ADG)” value was found to be 1.93; the Total feed intake is listed as 36,500 kg. In experiment [2] (setting [4]), this substance yielded a Body weight of 9.08 ± 0.94 kg. The Body weight in experiment [2] (setting [5]) is recorded as 32.84 ± 4.01 kg. Also, the “Enteropathogen infection, Coccidia (percentage of infection among 15 selected chickens)” value with Coccidia is 33%. Besides, in the experiment with Salmonella spp., the “Enteropathogen infection, Salmonella spp. (percentage of infection among 15 selected chickens)” value is listed as 53%.
With ferrous sulfate, the “Enteropathogen infection, Escherichia coli (percentage of infection among 15 selected chickens)” value in the experiment on Escherichia coli is 93%. This substance also displayed a Body weight in experiment [1] (setting [3]) of 31.06 ± 2.94 g. Further, in experiment [1], the “ADG (average daily gain)” value amounted to 23.3 g/day per chicken and the “FE (feed efficiency, ratio of total feed intake to total body weight)” value was 3.88. In addition, the Body weight in experiment [1] (Week 12 of mixed feed) worked out at 1965 ± 194.44 g. In addition, in the experiment on Clostridium perfringens, the “Enteropathogen infection, Clostridium perfringens (percentage of infection among 15 selected chickens)” value turned out to be 33%. In experiment [2], the “ADFI (average daily feed intake)” value was determined as 0.85 kg/day per piglet; the “ADG (average daily gain)” value is recorded as 0.30 kg/day per piglet; the “FE (feed efficiency, ratio of ADFI to ADG)” value is 2.80; the Total feed intake is on record as 33,255 kg. This substance also came in with a Body weight in experiment [2] (setting [4]) of 8.40 ± 1.17 kg. In experiment [2] (setting [5]), this substance gave a Body weight of 28.00 ± 4.28 kg. In addition, in the experiment on Coccidia, the “Enteropathogen infection, Coccidia (percentage of infection among 15 selected chickens)” value was determined as 100%. Also, in the experiment with Salmonella spp., the “Enteropathogen infection, Salmonella spp. (percentage of infection among 15 selected chickens)” value came out at 93%.
